Source: patent publication US9309242B2, “Substituted pyrido[2,3-b]pyrazines as FGFR kinase inhibitors” (priority 2011, dated 2016)

Assays:
[1] = target: T1, Ba/F3-KDR-transfected cells (Homo sapiens, UniProt P35968); experiment: Ba/F3-KDR (minus IL3) cellular proliferation assay, Alamar Blue; type: cell-based
T1 construct: BAF3-KDR (MIN IL3) pIC50; other: minus IL3
Summary of the method: (§1)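 Read-out: resazurin-based Alamar Blue fluorescence (ex. 540, em. 590 nm) after 4 h. Before that, cells were incubated with compound for 24 h at 37° C. The counterscreen ran identically but with IL3 supplemented.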

[2] = target: FGFR4 (h) (Homo sapiens, UniProt P22455); experiment: FGFR4 (enzymatic assay), TR-FRET; type: biochemical; conditions: FGFR 4 pIC50, enzymatic assay
[3] = target: FGFR3 (h) (Homo sapiens, UniProt P22607); experiment: FGFR3 (enzymatic assay), TR-FRET; type: biochemical; conditions: read-out: FGFR 3 pIC50 (converted)
Excerpt: Time-Resolved Fluorescence Resonance Energy Transfer (TR-FRET) signal (ex340 nm.

[4] = target: Ba/F3-FGFR4-transfected cells (Homo sapiens, UniProt P22455); experiment: Ba/F3-FGFR4 cellular proliferation assay, Alamar Blue; type: cell-based
Summary of the method: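 Fluorescence read-out (ex. 540 nm, em. 590 nm) of resazurin-based Alamar Blue after 4 h, following 24 h compound exposure of Ba/F3-FGFR4-transfected cells (20000/well) at 37° C, 5% CO2.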

[5] = target: FGFR1 (h) (Homo sapiens, UniProt P11362); experiment: FGFR1 (enzymatic assay), TR-FRET; type: biochemical; conditions: read-out: FGFR 1 pIC50 (converted)
[6] = target: T2, Ba/F3-FGFR3-transfected cells (Homo sapiens, UniProt P22607); experiment: Ba/F3-FGFR3 (minus IL3) cellular proliferation assay, Alamar Blue; type: cell-based
T2 construct: BAF3-FGFR3 (MIN IL3) pIC50; other: minus IL3
Summary of the method: (§2)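 With or without 10 ng/ml murine IL3, FGFR3-dependent Ba/F3 cells were treated 24 h with compound, then viability was gauged by Alamar Blue fluorescence after 4 h (ex 540/em 590 nm).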

[7] = target: KDR (h) (Homo sapiens, UniProt P35968); experiment: KDR (VEGFR2) (enzymatic assay), TR-FRET; type: biochemical; conditions: read-out: VEGFR 2 (KDR) pIC50 (converted)
Summary of the method: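 3 μM ATP, 500 nM Btn-Flt3 substrate, 150 ng/ml kinase; HEPES pH 7.5 with MnCl2, DTT, vanadate, Triton; 1% DMSO. 120 min RT. Stop: EDTA + Eu-anti-P-Tyr + SA-XL-665, 60 min RT. Readout TR-FRET ex340/em620, 655 nm, RFU.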

[8] = tested on: Ba/F3-FGFR3-transfected cells; experiment: Ba/F3-FGFR3 (plus IL3) cellular proliferation assay, counterscreen with 10 ng/ml murine IL3; type: cell-based; conditions: plus IL3 (10 ng/ml murine IL3, counterscreen); read-out: BAF3-FGFR3 (PLUS IL3) pIC50 (converted)
Summary of the method: as §2

[9] = tested on: Ba/F3-KDR-transfected cells; experiment: Ba/F3-KDR (plus IL3) cellular proliferation assay, counterscreen with 10 ng/ml murine IL3; type: cell-based; conditions: plus IL3 (10 ng/ml murine IL3, counterscreen); read-out: BAF3-KDR (PLUS IL3) pIC50 (converted)
Summary of the method: as §1

Chain of FGFR4 (h) (P22455 22-802): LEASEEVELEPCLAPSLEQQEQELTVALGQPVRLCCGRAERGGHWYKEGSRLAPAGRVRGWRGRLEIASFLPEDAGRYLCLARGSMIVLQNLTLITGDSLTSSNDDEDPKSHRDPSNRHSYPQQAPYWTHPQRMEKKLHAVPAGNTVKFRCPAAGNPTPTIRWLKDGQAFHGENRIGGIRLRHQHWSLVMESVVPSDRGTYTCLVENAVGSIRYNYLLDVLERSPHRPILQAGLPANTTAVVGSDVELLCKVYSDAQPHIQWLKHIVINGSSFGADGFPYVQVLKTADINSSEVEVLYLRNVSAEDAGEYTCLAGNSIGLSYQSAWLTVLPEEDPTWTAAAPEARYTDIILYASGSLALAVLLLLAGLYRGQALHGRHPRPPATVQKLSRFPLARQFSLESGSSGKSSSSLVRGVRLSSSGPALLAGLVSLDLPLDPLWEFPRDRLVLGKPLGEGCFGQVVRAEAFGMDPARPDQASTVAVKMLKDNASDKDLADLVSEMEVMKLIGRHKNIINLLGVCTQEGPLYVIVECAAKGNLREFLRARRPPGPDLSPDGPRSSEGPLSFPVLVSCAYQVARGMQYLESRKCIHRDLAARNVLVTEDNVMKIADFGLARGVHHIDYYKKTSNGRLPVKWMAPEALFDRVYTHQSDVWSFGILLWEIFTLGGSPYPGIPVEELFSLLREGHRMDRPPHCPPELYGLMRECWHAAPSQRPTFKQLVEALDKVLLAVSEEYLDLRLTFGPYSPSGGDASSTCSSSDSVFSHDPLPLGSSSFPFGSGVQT
Chain of FGFR3 (h) (P22607 23-806): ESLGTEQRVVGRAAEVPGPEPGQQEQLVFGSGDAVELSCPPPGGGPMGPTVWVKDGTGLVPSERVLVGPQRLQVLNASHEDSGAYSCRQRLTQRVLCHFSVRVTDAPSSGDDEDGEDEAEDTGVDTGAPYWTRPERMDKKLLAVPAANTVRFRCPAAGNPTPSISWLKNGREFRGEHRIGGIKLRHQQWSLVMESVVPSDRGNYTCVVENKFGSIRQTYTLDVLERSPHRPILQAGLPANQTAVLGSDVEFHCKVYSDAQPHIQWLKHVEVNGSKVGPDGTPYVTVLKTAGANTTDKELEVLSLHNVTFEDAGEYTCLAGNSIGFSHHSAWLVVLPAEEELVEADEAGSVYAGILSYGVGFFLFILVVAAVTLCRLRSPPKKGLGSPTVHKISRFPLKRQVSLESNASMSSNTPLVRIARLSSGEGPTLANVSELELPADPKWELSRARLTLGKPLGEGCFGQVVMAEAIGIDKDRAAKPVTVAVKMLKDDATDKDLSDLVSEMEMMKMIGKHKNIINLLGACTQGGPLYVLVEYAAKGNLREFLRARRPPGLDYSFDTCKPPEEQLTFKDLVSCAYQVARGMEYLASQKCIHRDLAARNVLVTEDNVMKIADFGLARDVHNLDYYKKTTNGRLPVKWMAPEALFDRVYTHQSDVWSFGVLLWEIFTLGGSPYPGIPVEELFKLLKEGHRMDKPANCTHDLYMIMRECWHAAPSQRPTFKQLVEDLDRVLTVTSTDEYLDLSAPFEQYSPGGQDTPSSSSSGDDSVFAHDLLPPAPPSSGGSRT
T2 sequence (P22607 whole entry, change not shown): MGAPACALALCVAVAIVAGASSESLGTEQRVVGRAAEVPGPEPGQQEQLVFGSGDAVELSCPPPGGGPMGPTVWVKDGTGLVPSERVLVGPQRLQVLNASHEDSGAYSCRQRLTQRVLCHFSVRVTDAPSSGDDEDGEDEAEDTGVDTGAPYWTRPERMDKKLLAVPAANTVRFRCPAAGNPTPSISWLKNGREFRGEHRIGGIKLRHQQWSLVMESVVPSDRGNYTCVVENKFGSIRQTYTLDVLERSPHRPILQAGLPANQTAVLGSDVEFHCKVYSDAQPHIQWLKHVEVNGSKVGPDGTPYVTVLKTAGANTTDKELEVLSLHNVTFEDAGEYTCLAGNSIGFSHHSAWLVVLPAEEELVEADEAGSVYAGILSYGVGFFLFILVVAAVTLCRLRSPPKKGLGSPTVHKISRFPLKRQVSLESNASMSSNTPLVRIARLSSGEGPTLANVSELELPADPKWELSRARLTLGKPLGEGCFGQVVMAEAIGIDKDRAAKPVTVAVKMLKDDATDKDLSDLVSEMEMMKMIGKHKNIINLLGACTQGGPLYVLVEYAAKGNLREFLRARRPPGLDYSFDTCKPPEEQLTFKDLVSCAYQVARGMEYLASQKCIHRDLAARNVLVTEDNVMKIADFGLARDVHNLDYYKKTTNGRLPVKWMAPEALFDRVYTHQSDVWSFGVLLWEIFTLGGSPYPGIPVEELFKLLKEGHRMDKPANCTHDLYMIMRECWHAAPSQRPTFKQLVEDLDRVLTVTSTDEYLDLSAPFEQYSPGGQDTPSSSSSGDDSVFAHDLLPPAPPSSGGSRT
Chain of Ba/F3-FGFR4-transfected cells (P22455 whole entry, change not shown): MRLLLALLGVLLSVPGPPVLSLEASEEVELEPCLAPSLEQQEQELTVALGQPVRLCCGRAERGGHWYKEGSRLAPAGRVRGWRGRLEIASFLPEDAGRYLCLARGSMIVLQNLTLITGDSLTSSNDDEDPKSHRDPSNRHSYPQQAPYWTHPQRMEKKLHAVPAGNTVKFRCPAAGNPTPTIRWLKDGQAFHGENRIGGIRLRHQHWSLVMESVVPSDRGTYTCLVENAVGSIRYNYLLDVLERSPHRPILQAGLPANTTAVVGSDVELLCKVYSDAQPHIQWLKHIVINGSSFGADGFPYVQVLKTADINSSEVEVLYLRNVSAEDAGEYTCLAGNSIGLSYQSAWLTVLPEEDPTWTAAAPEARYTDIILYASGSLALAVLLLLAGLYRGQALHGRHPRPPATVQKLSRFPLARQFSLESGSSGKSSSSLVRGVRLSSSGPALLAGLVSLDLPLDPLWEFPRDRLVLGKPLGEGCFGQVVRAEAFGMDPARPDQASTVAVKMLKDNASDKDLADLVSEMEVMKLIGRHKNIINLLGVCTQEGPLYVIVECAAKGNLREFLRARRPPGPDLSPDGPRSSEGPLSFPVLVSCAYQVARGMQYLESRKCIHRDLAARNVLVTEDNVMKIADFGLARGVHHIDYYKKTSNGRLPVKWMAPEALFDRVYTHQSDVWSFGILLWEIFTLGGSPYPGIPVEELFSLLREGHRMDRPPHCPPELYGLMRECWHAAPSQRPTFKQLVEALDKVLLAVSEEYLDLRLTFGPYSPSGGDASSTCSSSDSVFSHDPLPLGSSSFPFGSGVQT
T1 sequence (P35968 whole entry, change not shown): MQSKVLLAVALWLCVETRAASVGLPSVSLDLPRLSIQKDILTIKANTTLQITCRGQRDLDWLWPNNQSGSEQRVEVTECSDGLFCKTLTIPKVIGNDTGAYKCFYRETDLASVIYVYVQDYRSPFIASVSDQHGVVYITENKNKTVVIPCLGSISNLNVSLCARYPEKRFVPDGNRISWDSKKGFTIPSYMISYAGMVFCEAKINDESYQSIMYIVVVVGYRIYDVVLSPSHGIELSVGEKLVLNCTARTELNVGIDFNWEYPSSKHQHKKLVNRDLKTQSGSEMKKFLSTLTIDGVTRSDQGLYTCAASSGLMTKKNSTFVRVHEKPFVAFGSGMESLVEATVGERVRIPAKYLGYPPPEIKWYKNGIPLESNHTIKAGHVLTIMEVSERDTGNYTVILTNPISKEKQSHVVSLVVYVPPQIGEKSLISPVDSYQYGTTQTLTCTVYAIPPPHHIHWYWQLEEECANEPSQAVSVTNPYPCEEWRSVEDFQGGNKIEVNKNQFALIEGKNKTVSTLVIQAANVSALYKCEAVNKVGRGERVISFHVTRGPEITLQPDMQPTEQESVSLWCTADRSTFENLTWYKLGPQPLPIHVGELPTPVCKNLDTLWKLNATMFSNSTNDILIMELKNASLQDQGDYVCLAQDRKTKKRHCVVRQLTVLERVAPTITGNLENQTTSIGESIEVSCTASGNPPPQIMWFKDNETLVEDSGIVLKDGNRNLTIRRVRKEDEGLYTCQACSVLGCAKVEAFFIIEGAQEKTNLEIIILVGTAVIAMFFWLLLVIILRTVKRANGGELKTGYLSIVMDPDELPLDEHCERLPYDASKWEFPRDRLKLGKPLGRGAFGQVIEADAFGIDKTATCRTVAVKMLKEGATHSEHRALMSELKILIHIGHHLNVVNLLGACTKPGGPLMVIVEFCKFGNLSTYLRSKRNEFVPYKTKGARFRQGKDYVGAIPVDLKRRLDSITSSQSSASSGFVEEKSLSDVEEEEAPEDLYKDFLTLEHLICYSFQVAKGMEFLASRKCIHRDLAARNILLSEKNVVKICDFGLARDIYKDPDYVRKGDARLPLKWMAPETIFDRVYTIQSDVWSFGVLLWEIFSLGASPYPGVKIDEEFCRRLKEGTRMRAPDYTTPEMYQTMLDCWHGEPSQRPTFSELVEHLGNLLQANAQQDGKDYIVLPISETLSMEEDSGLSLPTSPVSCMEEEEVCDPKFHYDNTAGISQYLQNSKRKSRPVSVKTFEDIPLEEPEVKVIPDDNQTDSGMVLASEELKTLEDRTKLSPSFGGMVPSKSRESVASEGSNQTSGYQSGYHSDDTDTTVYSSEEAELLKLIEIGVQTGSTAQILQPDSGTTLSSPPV

Compound	BAF3-KDR (MIN IL3) pIC50 [1]	IC50 [2]	IC50 [3]	BAF3-FGFR4 pIC50 [4]	IC50 [5]	BAF3-FGFR3 (MIN IL3) pIC50 [6]	IC50 [7]	IC50 [8]	IC50 [9]
COc1cc(/N=c2\ccc3ncc(-c4cnn(C)c4)nc3n2CC(C)(C)O)c(F)c(OC)c1 [Compound 246]	5.83	2.09 nM	0.794 nM	6.71	0.603 nM	7.53	7.59 nM	> 10000 nM	> 10000 nM
COc1cc(OC)c(F)c(N(CC(O)c2cnn(C)c2)c2ccc3ncc(-c4cnn(C)c4)nc3n2)c1 (stereo not drawn) [Compound 244]	5.03	16.2 nM	4.07 nM	6.11	5.89 nM	6.73	129 nM	> 10000 nM	> 10000 nM
COc1cc(OC)c(F)c(N(CC2CCC(=O)N2)c2ccc3ncc(-c4cnn(C5CNC5)c4)nc3n2)c1 (stereo not drawn) [Compound 299]	<5	8.91 nM	3.55 nM	5.32	1.78 nM	5.94	120 nM	> 10000 nM	> 10000 nM
COc1cc(OC)c(F)c(N(Cc2ncc[nH]2)c2ccc3ncc(-c4cnn(CCS(C)(=O)=O)c4)nc3n2)c1 [Compound 264]	5.58	1.38 nM	1.41 nM	7.18	0.55 nM	8.09	9.33 nM	> 10000 nM	> 10000 nM
COc1cc(OC)c(F)c(N(CC(C)(C)O)c2ccc3ncc(-c4cnn(C)c4)nc3n2)c1 [Compound 245]	5.33	15.8 nM	3.31 nM	6.34	3.63 nM	7.07	60.3 nM	> 10000 nM	> 10000 nM
COc1cc(OC)cc(N(Cc2nnc(NCCO)o2)c2ccc3ncc(-c4cnn(C)c4)nc3n2)c1 [Compound 282]	<5	105 nM	25.7 nM	<5	33.1 nM	<5	661 nM	> 10000 nM	> 10000 nM
COc1cc(OC)cc(N(Cc2ncc[nH]2)c2ccc3ncc(N4CCOCC4)nc3n2)c1 [Compound 293]	5.31	4.79 nM	1.58 nM	6.82	1.62 nM	7.59	234 nM	> 10000 nM	> 10000 nM
COc1cc(OC)c(F)c(N(C)c2ccc3ncc(-c4cnn(C)c4)nc3n2)c1F (single isomer, unassigned) [Compound 254]	5.98	1 nM	0.437 nM	7.15	0.468 nM	8.08	14.1 nM	> 10000 nM	> 10000 nM
COc1cc(OC)cc(N(CC2CC(O)C(=O)N2)c2ccc3ncc(-c4cnn(C)c4)nc3n2)c1 (stereo not drawn) [Compound 271]	<5	7.76 nM	2.45 nM	5.80	4.57 nM	6.27	174 nM	> 10000 nM	> 10000 nM
COc1cc(OC)cc(N(Cc2c[nH]nn2)c2ccc3ncc(-c4cnn(C)c4)nc3n2)c1 [Compound 251]	5.53	2.69 nM	0.661 nM	6.57	1.32 nM	~7.6	26.3 nM	> 10000 nM	> 10000 nM
CCn1/c(=N/c2c(F)c(OC)cc(OC)c2F)ccc2ncc(-c3cnn(C)c3)nc21 [Compound 257]	6.80	0.457 nM	0.692 nM	7.98	0.331 nM	~8.66	3.16 nM	> 10000 nM	> 10000 nM
COc1cc(/N=c2\ccc3ncc(-c4cnn(C)c4)nc3n2CC2CC(O)C(=O)N2)cc(OC)c1 (stereo not drawn) [Compound 272]	5.68	5.25 nM	1.45 nM	5.97	0.977 nM	6.73	10 nM	> 10000 nM	> 10000 nM
COc1cc(OC)c(F)c(N(Cc2ncc[nH]2)c2ccc3ncc(N4C[C@@H](C)N[C@@H](C)C4)nc3n2)c1 [Compound 259]	5.13	28.2 nM	4.57 nM	6.19	2.09 nM	7.18	309 nM	> 10000 nM	> 10000 nM
COc1cc(OC)cc(N(c2ccc3ncc(-c4cnn(C)c4)nc3n2)C(C)c2ncc[nH]2)c1 (stereo not drawn) [Compound 280]	6.03	2.34 nM	1.86 nM	7.97	0.851 nM	~8.63	31.6 nM	> 10000 nM	> 10000 nM
COc1cc(/N=c2\ccc3ncc(-c4cnn(C)c4)nc3n2CC(C)(C)O)cc(OC)c1 [Compound 277]	5.49	4.68 nM	1.07 nM	6.37	0.871 nM	7.16	15.1 nM	> 10000 nM	> 10000 nM
COc1cc(OC)c(F)c(N(CC2CC(O)C(=O)N2)c2ccc3ncc(-c4cnn(C)c4)nc3n2)c1 (stereo not drawn) [Compound 269]	5.12	3.09 nM	2.14 nM	6.29	1.62 nM	~7.1	74.1 nM	> 10000 nM	> 10000 nM
